Measurements published in ChEMBL document CHEMBL1144201, “Design and synthesis of a series of meta aniline-based LFA-1 ICAM inhibitors” (Bioorg Med Chem Lett, 2008).

Experiments:
in vivo [1] = conditions: rat, po, 1 mg/kg
in vivo [2] = conditions: rat, 1 mg/kg
in vivo [3] = conditions: rat, 1 mg/kg; remark: listed apart in the source

O=C(/C=C/c1ccc(Sc2cccc(N[C@H]3CC[C@@H](C(=O)O)CC3)c2)c(C(F)(F)F)c1C(F)(F)F)N1CCOCC1
bioavailability (in vivo [1]): 13%
clearance (in vivo [2]): 8.3 mL/min/kg
half-life (in vivo [3]): 1.8 h

Nc1cccc(Sc2ccc(/C=C/C(=O)N3CCOCC3)c(C(F)(F)F)c2C(F)(F)F)c1
bioavailability (in vivo [1]): 27%
half-life (in vivo [3]): 4.5 h

CC(C)N1CCC(Nc2cccc(Sc3ccc(/C=C/C(=O)N4CCOCC4)c(C(F)(F)F)c3C(F)(F)F)c2)CC1
bioavailability (in vivo [1]): 32%
half-life (in vivo [3]): 7 h
